{"source": "patent US8791050B2", "about": "“Herbicidal compositions” (priority 1998, dated 2014)", "type_in_all_cases": "in vivo", "key": {"rice [1]": {"tested_on": "rice", "assay": "Selectivity: damage to rice, greenhouse trial", "conditions": "Table 6 greenhouse trial, post-emergence 3-4-leaf stage, scoring 20 days after application"}, "[2]": {"tested_on": "Echinochloa crus-galli (ECHCG)", "assay": "Herbicidal effect in rice, greenhouse trial, Echinochloa crus-galli", "conditions": "Table 6 greenhouse trial, post-emergence 3-4-leaf stage, scoring 20 days after application", "method": "(§1) The herbicidal efficacy of the active compounds or active compound mixtures was scored visually using the treated plots in comparison to untreated control plots. The damage and development of all above-ground parts of the plants were recorded. Scoring was carried out using a percentage scale (100% effect=all plants killed; 50% effect=50% of the plants and the green parts of the plants killed; 0% effect=no noticeable effect=like control plot). The scores of in each case 4 plots were averaged.\n(§2) If the observed activity values already exceed the formal sum of the values for the trials with the individual applications, they also exceed the expected value according to Colby which is calculated using the following formula and which is likewise considered to be an indication of synergism (cf. S. R. Colby; in Weeds 15 (1967) pp. 20 to 22): E=A+B−(A·B/100)\nSeeds or rhizome pieces of monocotyledonous and dicotyledonous weeds are placed in sandy loam soil in pots, covered with soil and grown in a greenhouse under good growth conditions (temperature, atmospheric humidity, water supply). Three weeks after sowing, the test plants are treated at the three-leaf stage with the compositions according to the invention. The compositions according to the invention, formulated as wettable powders or as emulsion concentrates, are sprayed, at various dosages, onto the green parts of the plant at an application rate of 600 to 800 l of water/ha (converted). After the test plants have been in the greenhouse for about 3 to 4 weeks under ideal growth conditions, the effect of the preparations is scored visually by comparison with untreated controls. The compositions according to the invention also have a good herbicidal post-emergence activity against a broad spectrum of economically important weed grasses and weeds.\nFrequently, activities of the combinations according to the invention are observed which exceed the formal sum of the activities when the herbicides are applied individually."}, "rice [3]": {"tested_on": "rice", "assay": "Selectivity: damage to rice, field trial", "method": "The damage and development of all above-ground parts of the plants were recorded. […] The scores of in each case 4 plots were averaged.\nCrop plants were grown outdoors on plots under natural outdoor conditions, and seeds or rhizome pieces of typical harmful plants were laid out or the natural weed growth was utilized."}, "Cyperus iria (CYPIR)": {"tested_on": "Cyperus iria (CYPIR)", "assay": "Herbicidal effect in rice, field trial, Cyperus iria", "conditions": "Table 14 field trial, post-emergence 3-leaf stage, scoring 42 days after application", "method": "as §1, §2\n(§3) Crop plants were grown outdoors on plots under natural outdoor conditions, and seeds or rhizome pieces of typical harmful plants were laid out or the natural weed growth was utilized. Treatment with the compositions according to the invention was carried out after the harmful plants had emerged and the crop plants were, generally, at the 2- to 4-leaf stage; in some cases (as stated), application of individual active compounds or active compound combinations was carried out pre-emergence (cf. Example 1) or as a sequential treatment partly pre-emergence and/or post-emergence.\n(§4) After the application, for example 2, 4, 6 and 8 weeks after the application, the effect of the preparations was scored visually by comparison with untreated controls (cf. scoring in Example 1). In the field trial as well, the compositions according to the invention have synergistic herbicidal activity against a broad spectrum of economically important weed grasses and broad-leaved weeds. […] Moreover, the effects in essential phases of the scoring period were above the expected values according to Colby (cf. scoring in Example 1), also indicating synergism. […]"}, "[4]": {"tested_on": "Echinochloa crus-galli (ECHCG)", "assay": "Herbicidal effect in rice, field trial, Echinochloa crus-galli", "method": "as §1, §2, §3\n(§5) After the application, for example 2, 4, 6 and 8 weeks after the application, the effect of the preparations was scored visually by comparison with untreated controls (cf. scoring in Example 1). In the field trial as well, the compositions according to the invention have synergistic herbicidal activity against a broad spectrum of economically important weed grasses and broad-leaved weeds. […] Moreover, the effects in essential phases of the scoring period were above the expected values according to Colby (cf. scoring in Example 1), also indicating synergism. In contrast, the crop plants were, as a consequence of the treatments with the herbicidal compositions, damaged only to a small degree, if at all."}, "[5]": {"tested_on": "Echinochloa colona (ECHCO)", "assay": "Herbicidal effect in rice, field trial, Echinochloa colona", "conditions": "Table 2 field trial, post-emergence 2-4-leaf stage, scoring 21 days after application, 400 g of AS/ha", "method": "as §1, §2, §3, §5"}, "[6]": {"tested_on": "Ipomea hederaceae (IPOHE)", "assay": "Herbicidal effect in rice, field trial, Ipomea hederaceae", "conditions": "Table 8 field trial, post-emergence 2-4-leaf stage, scoring 28 days after application, 30 g of AS/ha", "method": "as §1, §2\nCrop plants were grown outdoors on plots under natural outdoor conditions, and seeds or rhizome pieces of typical harmful plants were laid out or the natural weed growth was utilized. […]\nAfter the application, for example 2, 4, 6 and 8 weeks after the application, the effect of the preparations was scored visually by comparison with untreated controls (cf. scoring in Example 1). […]"}, "[7]": {"tested_on": "Amaranthus retroflexus (AMARE)", "assay": "Herbicidal effect in rice, field trial, Amaranthus retroflexus", "conditions": "Table 7 field trial, post-emergence 2-4-leaf stage, scoring 28 days after application, 3000 g of AS/ha", "method": "as §1, §2, §3, §4"}, "[8]": {"conditions": "Table 12 field trial, post-emergence 3-leaf stage, scoring 12 days after application, 1250 g of AS/ha"}, "[9]": {"conditions": "Table 12 field trial, post-emergence 3-leaf stage, scoring 12 days after application, 2500 g of AS/ha"}, "[10]": {"conditions": "Table 12 field trial, post-emergence 3-leaf stage, scoring 12 days after application, 5000 g of AS/ha"}, "[11]": {"conditions": "Table 13 field trial, post-emergence 1-2-leaf stage, scoring 28 days after application, 37.5 g of AS/ha"}}}
{"smiles": "CCC/C(=N\\OCC(C)Oc1ccc(Cl)cc1)C1=C(O)CC(C2CCCSC2)CC1=O", "note": "(stereo not shown) [(B1.31), clefoxidim]", "values": [{"measurement": "Damage (in %) to rice", "setting": "rice [1]; 18 g of AS/ha", "value": 0, "unit": "%"}, {"measurement": "Damage (in %) to rice", "setting": "rice [1]; 37 g of AS/ha", "value": 0, "unit": "%"}, {"measurement": "Damage (in %) to rice", "setting": "rice [1]; 75 g of AS/ha", "value": 0, "unit": "%"}, {"measurement": "Herbicidal effect (in %) against ECHCG", "setting": "[2]; 18 g of AS/ha", "value": 0, "unit": "%"}, {"measurement": "Herbicidal effect (in %) against ECHCG", "setting": "[2]; 37 g of AS/ha", "value": 10, "unit": "%"}, {"measurement": "Herbicidal effect (in %) against ECHCG", "setting": "[2]; 75 g of AS/ha", "value": 83, "unit": "%"}]}
{"smiles": "CC1(C)CON(Cc2ccccc2Cl)C1=O", "note": "[(B4.2), clomazone]", "values": [{"measurement": "Damage (in %) to rice", "setting": "rice [3]; in vivo", "value": 0, "unit": "%"}, {"measurement": "Herbicidal effect (in %) against CYPIR", "setting": "Cyperus iria (CYPIR); 300 g of AS/ha", "value": 30, "unit": "%"}]}
{"smiles": "CCC(=O)Nc1ccc(Cl)c(Cl)c1", "note": "[(B1.7), propanil]", "values": [{"measurement": "Damage (in %) to rice", "setting": "rice [3]; [8]", "value": 0, "unit": "%"}, {"measurement": "Damage (in %) to rice", "setting": "rice [3]; [9]", "value": 5, "unit": "%"}, {"measurement": "Damage (in %) to rice", "setting": "rice [3]; [10]", "value": 5, "unit": "%"}, {"measurement": "Herbicidal effect (in %) against ECHCG", "setting": "[4]; [8]", "value": 0, "unit": "%"}, {"measurement": "Herbicidal effect (in %) against ECHCG", "setting": "[4]; [9]", "value": 10, "unit": "%"}, {"measurement": "Herbicidal effect (in %) against ECHCG", "setting": "[4]; [10]", "value": 30, "unit": "%"}]}
{"smiles": "CCS(=O)(=O)Oc1ccc2c(c1)C(C)(C)CO2", "note": "[(B3.2), benfuresate]", "values": [{"measurement": "Damage (in %) to rice", "setting": "rice [3]; in vivo", "value": 0, "unit": "%"}, {"measurement": "Herbicidal effect (in %) against ECHCO", "setting": "[5]", "value": 0, "unit": "%"}]}
{"smiles": "COc1cc(OC)nc(Oc2cccc(Oc3nc(OC)cc(OC)n3)c2C(=O)ON=C(c2ccccc2)c2ccccc2)n1", "note": "[(B4.25), pyribenzoxim]", "values": [{"measurement": "Damage (in %) to rice", "setting": "rice [3]; Table 8 field trial, post-emergence 2-4-leaf stage, scoring 28 days after application, 30 g of AS/ha", "value": 0, "unit": "%"}, {"measurement": "Herbicidal effect (in %) against IPOHE", "setting": "[6]", "value": 78, "unit": "%"}]}
{"smiles": "COc1nc(NC(=O)NS(=O)(=O)c2ccccc2C(F)(F)F)nc(C(F)(F)F)n1", "note": "[(B2.4), tritosulfuron]", "values": [{"measurement": "Damage (in %) to rice", "setting": "rice [3]; [11]", "value": 0, "unit": "%"}, {"measurement": "Herbicidal effect (in %) against ECHCG", "setting": "[4]; [11]", "value": 0, "unit": "%"}]}
{"smiles": "CCN(CC)C(=O)SCc1ccc(Cl)cc1", "note": "[(B1.11), thiobencarb]", "values": [{"measurement": "Herbicidal effect (in %) against AMARE", "setting": "[7]", "value": 83, "unit": "%"}, {"measurement": "Herbicidal effect (in %) against CYPIR", "setting": "Cyperus iria (CYPIR); 1500 g of AS/ha", "value": 78, "unit": "%"}]}
